In publication PMC11599599, “Synthesis, characterization, molecular docking, pharmacokinetics, and molecular dynamics of new bis-thiazoles based on bis-thiosemicarbazone as anti-coxsackievirus” (Scientific Reports, 2024):

Legend:
Cox B virus [1] = experiment: Plaque reduction assay against Cox B virus; assay type: cell-based; conditions: for inhibition at 20 µg/mL / inhibition at 40 µg/mL: Vero
Description: (§1) Compounds: 10 mg were dissolved in 1 mL (10% DMSO and 90% deionized water), sterilized by 1% antibiotic–antimycotic mixture and stored in −20.
(§2) Cells: Vero cell line was used. The cells were propagated in DMEM medium (Lonza, USA) supplemented with 10% fetal bovine serum (Gibco, USA), 1% antibiotic–antimycotic mixture (Lonza, USA).
Virus: Cox B virus was propagated and titrated to give final count of 0.9 × 10^5 viral particle/mL.
This test was done according to Tebas et al.[47], In a 12-well plate Vero cells (10^5 cells/mL) were cultivated for 1 day at 37 °C. The Cox B virus was mixed with the safe concentration of the compound and incubated for 1 h at 37 °C before being added to the cells. Following the removal of the growth media, the cells were injected with virus-extract combinations ([…]) and then rinsed with PBS (Phosphate Buffer Saline). Following a one-hour contact period for virus adsorption, the cell monolayer was supplemented with one milliliter of Dulbecco’s Modified Eagles Media (DMEM) containing 2% agarose. The plates were then allowed to solidify and incubated at 37 °C until the development of viral plaques. Formalin (10%) was added for 2 h then plates were stained with crystal violet. Control wells were included where untreated virus was incubated with Vero cells and finally plaques were counted and percentage reduction in plaques formation in comparison to control wells was recorded as following:
% inhibition = (viral count(untreated) - viral count(treated))/viral count(untreated)X100.

Vero cells = experiment: Cytotoxicity assay on Vero cells (microscopic morphology); assay type: cell-based; set-up: key to Cytotoxicity on Vero cells (cell sheet affected): -: Safe concentration; + 1, +2, + 3, +4: about 25, 50, 75, 100% of cell sheet was affected respectively; + 1, +2, + 3, +4: about 25, 50, 75, 100% of cell sheet was affected respectively; + 1, +2, + 3, +4: about 25, 50, 75, 100% of cell sheet was affected respectively; + 1, +2, + 3, +4: about 25, 50, 75, 100% of cell sheet was affected respectively; M: masked (color of compounds made cells unseen); conditions: for Cytotoxicity on Vero cells (cell sheet affected): 24 h, morphological changes; for Safety effect on Vero cells (in words): Table 1, 24 h
Description: as §1, §2
Cytotoxic effect of compounds was measured by inoculation different doses of compounds on tested cells then examining them microscopically after 24 h to determine any morphological changes that appeared on cells as a result of being subjected to the compounds[46]. Vero cells were seeded onto 96-well plates, which were then incubated for the whole night. After a 24-hour incubation period at 37 °C in a humidified incubator with 5% CO2, compounds were injected at concentrations of 10, 20, 30, 40, 50, 60, 70, 80, 90, and 100 µg /100 µl. Any morphological changes were monitored under a microscope.

Cox B virus [2] = experiment: Mechanism of virus inhibition: viral adsorption; assay type: cell-based; conditions: for Viral count (treated): Adsorption, control 1.6 × 10^7
Description: (§3) For a compound having an antiviral effect, this might be due to the effect on viral replication, the effect on viral adsorption, or the direct effect on the viral particle.
Viral adsorption[49] Vero cells were cultivated in a 6-well plate (10^5 cells/mL) for 1 day at 37 °C. The compound was applied at different concentrations in […] medium without supplements and coincubated with the cells for 2 h at 4 °C. The virus was coincubated with the pretreatment cells for one hour after the unadsorbed extract was eliminated by washing the cells three times in PBS. Next, 2 mL of DMEM supplemented with 2% agarose were added. The plates were left to solidify and incubated till the appearance of plaques.

Cox B virus [3] = experiment: Mechanism of virus inhibition: virucidal; assay type: cell-based; conditions: for Viral count (treated): Virucidal, control 1.6 × 10^7
Description: For a compound having an antiviral effect, this might be due to the effect on viral replication, the effect on viral adsorption, or the direct effect on the viral particle. Virucidal[50] the assay was conducted in a 6-well plate with Vero cells that were cultured for two days at 37 °C (10^5 cells/mL). A volume of […] serum-free DMEM containing 1.5 × 10^2 PFU from Cox B was added to the concentration of the compound resulting in viral inhibition, after 1 h incubation, The mixture was diluted three times using serum-free media, which leaves almost no extract but still permits the existence of virus particles to develop on Vero cells. 100 mL of each dilution was then introduced to the Vero cell monolayer. The DMEM overlayer was added to the cell monolayer after a one-hour contact period. The plates were left to solidify then incubated till the appearance of plaques.

Cox B virus [4] = experiment: Mechanism of virus inhibition: viral replication; assay type: cell-based; conditions: for Viral count (treated): Replication, control 1.6 × 10^7
Description: as §3
Viral replication[48] Assay was carried out in a 6-well plate where Vero cells were cultivated (10^5 cells/ml) for 1 day at 37 °C. The cells were directly inoculated with the virus. After an hour of incubation, unadsorbed viral particles were eliminated by repeatedly washing the cells with PBS.
The compound was applied at different concentrations, and after 1 h contact time, 2 mL of DMEM medium supplemented with 2% agarose were added to the cell monolayer. Plates were left to solidify then incubated till the appearance of plaques.

## COc1ccc(OC)c(C=C2/C(=N/Nc3nc(C)c(/N=N/c4ccccc4)s3)c3ccccc3/C2=N\Nc2nc(C)c(/N=N/c3ccccc3)s2)c1 [7a, 2,2’-(((1E,3E)−2-(2,5-dimethoxybenzylidene)−1H-indene-1,3(2H)-diylidene)bis(hydrazin-1-yl-2-ylidene))bis(4-methyl-5-((E)-phenyldiazenyl)thiazole)]
Cox B virus [1]; 20 ug/mL
  Viral count (treated): 0.54 × 10 ^7
Cox B virus [1]; 40 ug/mL
  Viral count (treated): 0 × 10 ^7
Cox B virus [1]
  inhibition at 20 µg/mL: 66%
  inhibition at 40 µg/mL: 100%
Cox B virus [1]; at tested concentrations
  Antiviral activity against Cox B virus (in words): high viral inhibition
Vero cells; 10 µg/100µl
  Cytotoxicity on Vero cells (cell sheet affected): -
Vero cells; 20 µg/100µl
  Cytotoxicity on Vero cells (cell sheet affected): -
Vero cells; 30 µg/100µl
  Cytotoxicity on Vero cells (cell sheet affected): -
Vero cells; 40 µg/100µl
  Cytotoxicity on Vero cells (cell sheet affected): -
Vero cells; 50 µg/100µl
  Cytotoxicity on Vero cells (cell sheet affected): -
Vero cells; 70 µg/100µl
  Cytotoxicity on Vero cells (cell sheet affected): M
Vero cells; 80 µg/100µl
  Cytotoxicity on Vero cells (cell sheet affected): M
Vero cells; 90 µg/100µl
  Cytotoxicity on Vero cells (cell sheet affected): M
Vero cells; 100 µg/100µl
  Cytotoxicity on Vero cells (cell sheet affected): M
Vero cells
  Safety effect on Vero cells (in words): dense and coloured that made masking to the cell sheet
Cox B virus [2]
  Effect on viral adsorption (in words): inhibiting both viral adsorption and replication
  inhibition at 20 µg/mL: 42%
  inhibition at 40 µg/mL: 57%
  inhibition at 60 µg/mL: 85%
Cox B virus [2]; 20 µg/ml
  Viral count (treated): 0.92 × 10^7
Cox B virus [2]; 40 µg/ml
  Viral count (treated): 0.68 × 10^7
Cox B virus [2]; 60 µg/ml
  Viral count (treated): 0.24 × 10^7
Cox B virus [3]
  inhibition at 20 µg/mL: 0%
  inhibition at 40 µg/mL: 12%
  inhibition at 60 µg/mL: 37%
Cox B virus [3]; 20 µg/ml
  Viral count (treated): 1.6 × 10^7
Cox B virus [3]; 40 µg/ml
  Viral count (treated): 1.4 × 10^7
Cox B virus [3]; 60 µg/ml
  Viral count (treated): 1 × 10^7
Cox B virus [4]
  Effect on viral replication (in words): inhibiting both viral adsorption and replication
  inhibition at 20 µg/mL: 37%
  inhibition at 40 µg/mL: 48%
  inhibition at 60 µg/mL: 56%
Cox B virus [4]; 20 µg/ml
  Viral count (treated): 1 × 10^7
Cox B virus [4]; 40 µg/ml
  Viral count (treated): 0.8 × 10^7
Cox B virus [4]; 60 µg/ml
  Viral count (treated): 0.7 × 10^7

## COc1ccc(OC)c(C=C2/C(=N/NC3=NC(=O)CS3)c3ccccc3/C2=N\NC2=NC(=O)CS2)c1 [9a, 2,2’-(((1E,3E)−2-(2,5-dimethoxybenzylidene)−1H-indene-1,3(2H)-diylidene)bis(hydrazin-1-yl-2-ylidene))bis(thiazol-4(5H)-one)]
Cox B virus [1]; 20 ug/mL
  Viral count (treated): 1.6 × 10^7
Cox B virus [1]; 40 ug/mL
  Viral count (treated): 1.6 × 10^7
Cox B virus [1]
  inhibition at 20 µg/mL: 0%
  inhibition at 40 µg/mL: 0%
Vero cells; 10 µg/100µl
  Cytotoxicity on Vero cells (cell sheet affected): -
Vero cells; 20 µg/100µl
  Cytotoxicity on Vero cells (cell sheet affected): -
Vero cells; 30 µg/100µl
  Cytotoxicity on Vero cells (cell sheet affected): -
Vero cells; 40 µg/100µl
  Cytotoxicity on Vero cells (cell sheet affected): -
Vero cells; 50 µg/100µl
  Cytotoxicity on Vero cells (cell sheet affected): -
Vero cells; 60 µg/100µl
  Cytotoxicity on Vero cells (cell sheet affected): -
Vero cells
  Safety effect on Vero cells (in words): highly toxic at low concentration
other
  melting point: 130 to 132 °C

## COc1ccc(OC)c(C=C2C(=NNC(N)=S)c3ccccc3C2=NNC(N)=S)c1 [compound 3, 2,2’-((1E,3Z)−2-((E)−2,5-dimethoxybenzylidene)−1H-indene-1,3(2H)-diylidene)bis-(hydrazine-1-carbothioamide)]
Cox B virus [1]; 20 ug/mL
  Viral count (treated): 1.24 × 10^7
Cox B virus [1]; 40 ug/mL
  Viral count (treated): 0.72 × 10^7
Cox B virus [1]
  inhibition at 20 µg/mL: 22%
  inhibition at 40 µg/mL: 55%
Vero cells; 10 µg/100µl
  Cytotoxicity on Vero cells (cell sheet affected): -
Vero cells; 20 µg/100µl
  Cytotoxicity on Vero cells (cell sheet affected): -
Vero cells; 30 µg/100µl
  Cytotoxicity on Vero cells (cell sheet affected): -
Vero cells; 40 µg/100µl
  Cytotoxicity on Vero cells (cell sheet affected): -
Vero cells; 50 µg/100µl
  Cytotoxicity on Vero cells (cell sheet affected): -
Vero cells; 60 µg/100µl
  Cytotoxicity on Vero cells (cell sheet affected): -
Vero cells; 70 µg/100µl
  Cytotoxicity on Vero cells (cell sheet affected): -
Vero cells; 80 µg/100µl
  Cytotoxicity on Vero cells (cell sheet affected): -
Vero cells; 90 µg/100µl
  Cytotoxicity on Vero cells (cell sheet affected): -
Vero cells; 100 µg/100µl
  Cytotoxicity on Vero cells (cell sheet affected): -
Vero cells
  Safety effect on Vero cells (in words): higher safety
other
  melting point: 231 to 233 °C

## COc1ccc(OC)c(C=C2/C(=N/Nc3nc(-c4ccccc4)cs3)c3ccccc3/C2=N\Nc2nc(-c3ccccc3)cs2)c1 [compound 13, 2,2’-(((1E,3E)−2-(2,5-dimethoxybenzylidene)−1H-indene-1,3(2H)-diylidene)bis(hydrazin-1-yl-2-ylidene))bis(4-phenylthiazole)]
Cox B virus [1]; 20 ug/mL
  Viral count (treated): 1.6 × 10^7
Cox B virus [1]; 40 ug/mL
  Viral count (treated): 1.6 × 10^7
Cox B virus [1]
  inhibition at 20 µg/mL: 0%
  inhibition at 40 µg/mL: 0%
Vero cells; 10 µg/100µl
  Cytotoxicity on Vero cells (cell sheet affected): -
Vero cells; 20 µg/100µl
  Cytotoxicity on Vero cells (cell sheet affected): -
Vero cells; 30 µg/100µl
  Cytotoxicity on Vero cells (cell sheet affected): -
Vero cells; 40 µg/100µl
  Cytotoxicity on Vero cells (cell sheet affected): -
Vero cells; 50 µg/100µl
  Cytotoxicity on Vero cells (cell sheet affected): -
Vero cells; 60 µg/100µl
  Cytotoxicity on Vero cells (cell sheet affected): -
Vero cells; 70 µg/100µl
  Cytotoxicity on Vero cells (cell sheet affected): -
Vero cells; 80 µg/100µl
  Cytotoxicity on Vero cells (cell sheet affected): -
Vero cells; 90 µg/100µl
  Cytotoxicity on Vero cells (cell sheet affected): -
Vero cells; 100 µg/100µl
  Cytotoxicity on Vero cells (cell sheet affected): -
Vero cells
  Safety effect on Vero cells (in words): higher safety
other
  melting point: 193 to 195 °C
